Test results as given in US11547686B2 (priority 2017, dated 2023).
≈ marks a conversion by molar mass, not a printed value. Read-outs that look alike come from different tables or passages of the source. Marks after values point to notes of the source that are not given here.

Experiments:
[1] = tested on: somatic pain in a rat model; assay: Hot plate test (somatic pain); assay type: in vivo, Sprague-Dawley rats; conditions: rats; morphine 3 mg/kg s.c.; combination 50 mg/kg APAP; 40 mg/kg pregabalin IV infusion
Experimental: Hot Plate Test: The hot plate test is a test that can be used to assess pain sensitivity in rodents. […] In the test, an animal is placed in a confined cylindrical space to restrict locomotion. The floor surface of the space is maintained at a temperature sufficiently hot to elicit an aversive response, but not so hot that tissue damage is induced, typically 50-56° C. The animal is monitored, and latency to paw licking or jumping is recorded. This test can be used to screen novel drugs or drug combinations for effects on pain detection threshold; substances with an analgesic effect can increase latency to licking/jumping, while substances with a hyperalgesic effect can decrease latency.
The effect on somatic pain was tested in groups of 8 Male Sprague-Dawley rats.
Vehicle and test agents were administered by intravenous infusion (IV-CI) over 15 minutes starting 30 minutes before Time 0 (15 minutes post infusion). Morphine was used as a positive control, and was administered (3 mg/kg) by subcutaneous administration 60 minutes before Time 0. […] The pain threshold of the rats was assessed based on the time (seconds) required to elicit a paw withdrawal response (latency).
The data were analyzed by a one-way ANOVA followed by Dunnett's test for comparison between vehicle control and test article/positive control groups.

[2] = tested on: red blood cells (mouse whole unclotted blood); assay: In vitro hemolysis test, mouse blood; conditions: 15 min at 37° C.
[3] = tested on: red blood cells (human whole unclotted blood); assay: In vitro hemolysis test, human blood; conditions: 15 min at 37° C.
[4] = Pharmacokinetic parameters after 15 min infusion in rats; conditions: for AUC(0-inf) / Cmax: rat, in vivo, iv
Experimental: The active ingredients were dissolved in 0.9% saline (20 mL) to achieve the desired concentration. The saline and vial constituents were mixed with by gentle swirling until a clear solution was obtained. The obtained clear solution was filtered through a sterile 0.45 μm PVDF membrane syringe filter and then used for further studies.
(§1) Blood samples were collected over a 24 h period, at which time the rats were exsanguinated, and the blood was collected for clinical pathology evaluation (chemistry, hematology, and coagulation). Finally, all the animals were necropsied (all exterior and interior cavities and organs were examined), and the site of infusion in the jugular vein, lung, liver, and kidney underwent histopathologic evaluation.

[5] = Necropsy and histopathologic evaluation after intravenous infusion in rats; conditions: n = 6 per group
Experimental: as §1

[6] = Solubility of pregabalin and acetaminophen in water at different pH values (HPLC-UV); conditions: for solubility: thermodynamic from solid
Experimental: The pH was then adjusted to the required range. The concentration of the active ingredients was determined by HPLC-UV.

[7] = tested on: red blood cells (rat whole unclotted blood); assay: In vitro hemolysis test, rat blood; conditions: 15 min at 37° C.
[8] = tested on: red blood cells (dog whole unclotted blood); assay: In vitro hemolysis test, dog blood; conditions: 15 min at 37° C.
[9] = rats, 15 min IV infusion
Experimental: as §1

Structure (SMILES): CN1CC[C@]23c4c5ccc(O)c4O[C@H]2[C@@H](O)C=C[C@H]3[C@H]1C5 [morphine]
- Onset of the analgesic effect [1]: near immediate

Structure (SMILES): CC(C)C[C@H](CN)CC(=O)O [Pregabalin, (3S)-3-(Aminomethyl)-5-methylhexanoic acid]
- % Hemolysis ([2]; PGB 0.75 mg/mL): 0%
- % Hemolysis ([2]; PGB 1.5 mg/mL): 4%
- % Hemolysis ([2]; PGB 3 mg/mL): 0%
- % Hemolysis ([3]; PGB 0.75 mg/mL): 0%
- % Hemolysis ([3]; PGB 1.5 mg/mL): 7%
- % Hemolysis ([3]; PGB 3 mg/mL): 1%
- AUC(0-inf) ([4]; 1.25 mg/kg, AUC0-∞ of pregabalin, rats, 15 min IV infusion, Pregabalin 1.25 mg/kg): 6750 ng·h/mL
- Cmax ([4]; 1.25 mg/kg, Cmax of pregabalin, rats, 15 min IV infusion, Pregabalin 1.25 mg/kg): 2060 ng/mL
- AUC(0-inf) ([4]; 1.25 mg/kg, Equivalence (80%-125%) range of pregabalin AUC0-∞, rats, Pregabalin 1.25 mg/kg alone as reference): 5400 to 8440 ng·h/mL
- Cmax ([4]; 1.25 mg/kg, Equivalence (80%-125%) range of pregabalin Cmax, rats, Pregabalin 1.25 mg/kg alone as reference): 1650 to 2580 ng/mL
- AUC(0-inf) ([4]; 5 mg/kg, AUC0-∞ of pregabalin, rats, 15 min IV infusion, Pregabalin 5 mg/kg): 26100 ng·h/mL
- Cmax ([4]; 5 mg/kg, Cmax of pregabalin, rats, 15 min IV infusion, Pregabalin 5 mg/kg): 7910 ng/mL
- AUC(0-inf) ([4]; 5 mg/kg, Equivalence (80%-125%) range of pregabalin AUC0-∞, rats, Pregabalin 5 mg/kg alone as reference): 20900 to 32700 ng·h/mL
- Cmax ([4]; 5 mg/kg, Equivalence (80%-125%) range of pregabalin Cmax, rats, Pregabalin 5 mg/kg alone as reference): 6330 to 9880 ng/mL
- Change in the pharmacokinetic profile of pregabalin in the presence or absence of acetaminophen ([4]; rats, 15 min IV infusion): No change
- Necropsy Observation: Lung Discolored ([5]; PGB 1.25 mg/kg): 1
- Necropsy Observation: Lung Focus ([5]; PGB 1.25 mg/kg): 1
- Necropsy Observation: Lung Discolored ([5]; PGB 5 mg/kg): 0
- Necropsy Observation: Lung Focus ([5]; PGB 5 mg/kg): 2
- solubility ([6]; aqueous buffer, Solubility of pregabalin, water, pH range of 5-7, pregabalin alone): ~31 mg/mL (≈ 195 mM)
- solubility ([6]; pH 4, aqueous buffer, Solubility of pregabalin, water, pH 4, co-dissolved with acetaminophen): 54.4 mg/mL (≈ 342 mM)
- solubility ([6]; pH 4, aqueous buffer, Solubility of pregabalin, water, room temperature, pH 4, pregabalin alone): 54.4 mg/mL (≈ 342 mM)
- solubility ([6]; pH 5, aqueous buffer, Solubility of pregabalin, water, pH 5, co-dissolved with acetaminophen): 36.8 mg/mL (≈ 231 mM)
- solubility ([6]; pH 5, aqueous buffer, Solubility of pregabalin, water, room temperature, pH 5, pregabalin alone): 32.4 mg/mL (≈ 203 mM)
- solubility ([6]; pH 6, aqueous buffer, Solubility of pregabalin, water, pH 6, co-dissolved with acetaminophen): 35 mg/mL (≈ 220 mM)
- solubility ([6]; pH 6, aqueous buffer, Solubility of pregabalin, water, room temperature, pH 6, pregabalin alone): 31 mg/mL (≈ 195 mM)
- solubility ([6]; pH 7, aqueous buffer, Solubility of pregabalin, water, pH 7, co-dissolved with acetaminophen): 35 mg/mL (≈ 220 mM)
- solubility ([6]; pH 7, aqueous buffer, Solubility of pregabalin, water, room temperature, pH 7, pregabalin alone): 30.6 mg/mL (≈ 192 mM)
- Change in the solubility of pregabalin in the presence of acetaminophen ([6]; pH range of 5-7, versus pregabalin alone): increase
- % Hemolysis ([7]; PGB 0.75 mg/mL): 2%
- % Hemolysis ([7]; PGB 1.5 mg/mL): 0%
- % Hemolysis ([7]; PGB 3 mg/mL): 2%
- % Hemolysis ([8]; PGB 0.75 mg/mL): 0%
- % Hemolysis ([8]; PGB 1.5 mg/mL): 0%
- % Hemolysis ([8]; PGB 3 mg/mL): 1%
- ALBGLOB (albumin/globulin ratio, calculated) ([9]; PGB 1.25 mg/kg): 1.4
- ALP (alkaline phosphatase) ([9]; PGB 1.25 mg/kg): 99 U/L
- ALT (alanine aminotransferase) ([9]; PGB 1.25 mg/kg): 45 U/L
- APPT (Activated partial thromboplastin time) ([9]; PGB 1.25 mg/kg): 12.9 s
- AST (aspartate aminotransferase) ([9]; PGB 1.25 mg/kg): 93 ** U/L
- Albumin ([9]; PGB 1.25 mg/kg): 4.0 g/dL
- Basophils ([9]; PGB 1.25 mg/kg): 80 µL⁻¹
- Bilirubin ([9]; PGB 1.25 mg/kg): 0.02 mg/dL
- Calcium ([9]; PGB 1.25 mg/kg): 11.4 mg/dL
- Chloride ([9]; PGB 1.25 mg/kg): 102 mEq/L
- Cholesterol ([9]; PGB 1.25 mg/kg): 94 mg/dL
- Creatinine ([9]; PGB 1.25 mg/kg): 0.47 mg/dL
- Eosinophils ([9]; PGB 1.25 mg/kg): 280 µL⁻¹
- GLOBUL (globulin, calculated) ([9]; PGB 1.25 mg/kg): 2.8 g/dL
- Glucose ([9]; PGB 1.25 mg/kg): 166 mg/dL
- Hematocrit ([9]; PGB 1.25 mg/kg): 44.2%
- Hemoglobin ([9]; PGB 1.25 mg/kg): 14.2 g/dL
- LGLUCLE (large unstained cell) ([9]; PGB 1.25 mg/kg): 100 µL⁻¹
- Lymphocytes ([9]; PGB 1.25 mg/kg): 9400 µL⁻¹
- MCH (mean cell hemoglobin) ([9]; PGB 1.25 mg/kg): 17.8 pg
- MCHC (mean cell hemoglobin concentration) ([9]; PGB 1.25 mg/kg): 32 g/dL
- MCV (mean cell volume) ([9]; PGB 1.25 mg/kg): 55.8 fL
- Monocytes ([9]; PGB 1.25 mg/kg): 500 µL⁻¹
- Neutrophils ([9]; PGB 1.25 mg/kg): 1400 µL⁻¹
- PHOS (inorganic phosphorus) ([9]; PGB 1.25 mg/kg): 10.6 mg/dL
- Platelets ([9]; PGB 1.25 mg/kg): 908000 µL⁻¹
- Potassium ([9]; PGB 1.25 mg/kg): 7.3 mEq/L
- Protein ([9]; PGB 1.25 mg/kg): 6.7 g/dL
- Prothrombin time ([9]; PGB 1.25 mg/kg): 16.8 s
- RBC ([9]; PGB 1.25 mg/kg): 7.93e+06 µL⁻¹
- Reticulocytes ([9]; PGB 1.25 mg/kg): 4.11 * %
- Sodium ([9]; PGB 1.25 mg/kg): 148 * mEq/L
- Triglycerides ([9]; PGB 1.25 mg/kg): 33 mg/dL
- UREAN (blood urea nitrogen) ([9]; PGB 1.25 mg/kg): 19 mg/dL
- WBC ([9]; PGB 1.25 mg/kg): 11740 µL⁻¹
- ALBGLOB (albumin/globulin ratio, calculated) ([9]; PGB 5 mg/kg): 1.4
- ALP (alkaline phosphatase) ([9]; PGB 5 mg/kg): 97 U/L
- ALT (alanine aminotransferase) ([9]; PGB 5 mg/kg): 51 U/L
- APPT (Activated partial thromboplastin time) ([9]; PGB 5 mg/kg): 12.4 s
- AST (aspartate aminotransferase) ([9]; PGB 5 mg/kg): 107 U/L
- Albumin ([9]; PGB 5 mg/kg): 3.9 g/dL
- Basophils ([9]; PGB 5 mg/kg): 80 µL⁻¹
- Bilirubin ([9]; PGB 5 mg/kg): 0.02 mg/dL
- Calcium ([9]; PGB 5 mg/kg): 11.5 mg/dL
- Chloride ([9]; PGB 5 mg/kg): 101 mEq/L
- Cholesterol ([9]; PGB 5 mg/kg): 93 mg/dL
- Creatinine ([9]; PGB 5 mg/kg): 0.44 mg/dL
- Eosinophils ([9]; PGB 5 mg/kg): 350 µL⁻¹
- GLOBUL (globulin, calculated) ([9]; PGB 5 mg/kg): 2.8 g/dL
- Glucose ([9]; PGB 5 mg/kg): 150 mg/dL
- Hematocrit ([9]; PGB 5 mg/kg): 45.1%
- Hemoglobin ([9]; PGB 5 mg/kg): 14.4 g/dL
- LGLUCLE (large unstained cell) ([9]; PGB 5 mg/kg): 80 µL⁻¹
- Lymphocytes ([9]; PGB 5 mg/kg): 10810 µL⁻¹
- MCH (mean cell hemoglobin) ([9]; PGB 5 mg/kg): 18.3 pg
- MCHC (mean cell hemoglobin concentration) ([9]; PGB 5 mg/kg): 32.1 g/dL
- MCV (mean cell volume) ([9]; PGB 5 mg/kg): 57.1 fL
- Monocytes ([9]; PGB 5 mg/kg): 450 µL⁻¹
- Neutrophils ([9]; PGB 5 mg/kg): 1520 µL⁻¹
- PHOS (inorganic phosphorus) ([9]; PGB 5 mg/kg): 10 ** mg/dL
- Platelets ([9]; PGB 5 mg/kg): 933000 µL⁻¹
- Potassium ([9]; PGB 5 mg/kg): 6.9 * mEq/L
- Protein ([9]; PGB 5 mg/kg): 6.7 g/dL
- Prothrombin time ([9]; PGB 5 mg/kg): 16.6 s
- RBC ([9]; PGB 5 mg/kg): 7.9e+06 µL⁻¹
- Reticulocytes ([9]; PGB 5 mg/kg): 4.7%
- Sodium ([9]; PGB 5 mg/kg): 147 mEq/L
- Triglycerides ([9]; PGB 5 mg/kg): 30 mg/dL
- UREAN (blood urea nitrogen) ([9]; PGB 5 mg/kg): 19 mg/dL
- WBC ([9]; PGB 5 mg/kg): 13280 µL⁻¹

Structure (SMILES): CC(=O)Nc1ccc(O)cc1 [Acetaminophen, N-(4-hydroxyphenyl)acetamide]
- % Hemolysis ([2]; APAP 5 mg/mL): 5%
- % Hemolysis ([2]; APAP 7.5 mg/mL): 5%
- % Hemolysis ([2]; APAP 10 mg/mL): 4%
- % Hemolysis ([3]; APAP 5 mg/mL): 2%
- % Hemolysis ([3]; APAP 7.5 mg/mL): 0%
- % Hemolysis ([3]; APAP 10 mg/mL): 6%
- AUC(0-inf) ([4]; 17 mg/kg, AUC0-∞ of acetaminophen): 11500 ng·h/mL
- Cmax ([4]; 17 mg/kg, Cmax of acetaminophen): 18600 ng/mL
- AUC(0-inf) ([4]; 17 mg/kg, Equivalence (80%-125%) range of acetaminophen AUC0-∞): 9190 to 14400 ng·h/mL
- Cmax ([4]; 17 mg/kg, Equivalence (80%-125%) range of acetaminophen Cmax): 14900 to 23300 ng/mL
- Effect of the presence or absence of pregabalin on the pharmacokinetics of acetaminophen ([4]; rats, 15 min IV infusion): did not affect
- solubility ([6]; pH 4, aqueous buffer, Solubility of acetaminophen, water, pH 4, co-dissolved with pregabalin): ~21 mg/mL (≈ 139 mM)
- solubility ([6]; pH 5, aqueous buffer, Solubility of acetaminophen, water, pH 5, co-dissolved with pregabalin): 18.7 mg/mL (≈ 124 mM)
- solubility ([6]; pH 6, aqueous buffer, Solubility of acetaminophen, water, pH 6, co-dissolved with pregabalin): 17.9 mg/mL (≈ 118 mM)
- solubility ([6]; pH 7, aqueous buffer, Solubility of acetaminophen, water, pH 7, co-dissolved with pregabalin): 17.9 mg/mL (≈ 118 mM)
- Difference in the solubility of acetaminophen ([6]; pH range from 4-7, acetaminophen alone): no significant difference
- Solubility of acetaminophen ([6]; water, pH 4, co-dissolved with pregabalin): 20.8 mg/mL
- % Hemolysis ([7]; APAP 5 mg/mL): 6%
- % Hemolysis ([7]; APAP 7.5 mg/mL): 0%
- % Hemolysis ([7]; APAP 10 mg/mL): 2%
- % Hemolysis ([8]; APAP 5 mg/mL): 0%
- % Hemolysis ([8]; APAP 7.5 mg/mL): 0%
- % Hemolysis ([8]; APAP 10 mg/mL): 0%
